Here are results for 4 compounds from article PMC9077138, “An investigation on 3-acetyl-7-methoxy-coumarin Schiff bases and their Ru(II) metallates with potent antiproliferative activity and enhanced LDH and NO release” (RSC Advances, 2018).

The target of one assay is T1, BSA (Bos taurus, UniProt P02769).
T1 construct: purchased HiMedia (Mumbai, India)
The assay can be described thus: BSA tryptophan fluorescence quenching. It counts as binding, bovine. An excerpt:
(§1) The obtained results confirmed the interaction of the ligands and complexes with serum albumins. The absorption spectra of the serum albumins in the absence and presence of ligands H2L^1–4 and the complexes 1–4 are given in Fig. S29 in the ESI. ^† On adding ligands and complexes 1–4 to albumins, the absorbance intensity of serum albumins was decreased with a red shift of 2 nm. The observed changes indicated a static quenching mechanism of serum albumins by the ligands and complexes (1–4). To obtain a quantitative insight into the quenching progression, the Stern–Volmer quenching constant (KSV) and the quenching constant (Kq) were calculated from the Stern–Volmer equation using the Io/ICorrversus [Q] plot (Table 4).[53] The observed linearity in the plots (Fig. 13) indicated the ability of the compounds to quench the emission intensity of serum albumins and the order of quenching constant of the compounds is complex 3 > complex 2 > complex 1 > complex 4 > H2L^3 > H2L^2 > H2L^1 > H2L^4.
(§2) Furthermore, the equilibrium binding constant and number of binding sites were evaluated by using the Scatchard equation. The Kbin values were derived from the graph between log[(Fo − F)/F] and log[Q] From the results, we confirmed that the Ru(II) complexes having a large hydrophobic area can interact more efficiently than the ligands with serum albumins via a static pathway. The higher binding affinity of the complexes over the ligands may be due to the efficient binding of protein moiety with the complexed metal ions. Here, the binding affinities of the complexes with serum albumins followed the same order as those with DNA binding studies, complex 3 > complex 2 > complex 1 > complex 4 > H2L^3 > H2L^2 > H2L^1 > H2L^4. Variation in the binding affinity of the compounds with serum albumins depends on the electron-donating ability of the ligand, i.e. the substitution on the N-terminal nitrogen atom. The binding capability of the compounds to serum albumins increased with the increase in electron-donating ability of the substituent on the terminal nitrogen of the coordinated thiosemicarbazone ligand. The obtained quenching constant and binding constant values of these new cyclometallated ruthenium(II) complexes agree well with those reported for other ruthenium(II) complexes.[31,44,54–56] […]
(§3) Serum albumin binding study
(§4) Bovine Serum Albumin (BSA) and human serum albumin were purchased from Hi Media, The protein binding study was performed by tryptophan fluorescence quenching experiments using bovine serum albumin (BSA, 10 µM) or human serum albumin (HSA, 10 µM) as the substrate in phosphate buffer (pH= 7.2). Quenching of the emission intensity of tryptophan residues of BSA at 346 nm (excitation wavelength at 280 nm)/ HSA at 345 nm (excitation wavelength at 290 nm) was monitored using ligands and complexes as quenchers with increasing concentration (10-100µM). Synchronous fluorescence spectra of BSA or HSA with various concentrations of the complexes were obtained from 300 to 400 nm when ∆λ = 60 nm and from 290 to 500 nm when ∆λ = 15 nm. For synchronous fluorescence spectra, the same concentrations of serum albumins and the compounds were also used and the spectra were measured at two different Δλ values (difference between the excitation and emission wavelengths of BSA), such as 15 and 60 nm. Fluorescence and synchronous measurements were performed using a 1 cm quartz cell on a JASCO FP 6600 spectrofluorimeter.
(§5) The quenching data can be analyzed according to the Stern-Volmer equation, […]
(§6) Io/Icorr =K SV[Q]+1 Eq (S2) where Iₒ is the emission intensity in the absence of compound, Icorr is the corrected emission intensity in the presence of compound, KSV is the quenching constant and [Q] is the concentration of the compound.
(§7) In order to correct the inner filter effect, the following equation used Icorr = Iobs*10 (Aexc+Aem)/2 where Icorr is the corrected fluorescence value, Iobs the measured fluorescence value, Aexc is […]

A further assay deals with T2, HSA (Homo sapiens, UniProt P02768).
T2 construct: purchased HiMedia (Mumbai, India)
T2 sequence (P02768 25-609): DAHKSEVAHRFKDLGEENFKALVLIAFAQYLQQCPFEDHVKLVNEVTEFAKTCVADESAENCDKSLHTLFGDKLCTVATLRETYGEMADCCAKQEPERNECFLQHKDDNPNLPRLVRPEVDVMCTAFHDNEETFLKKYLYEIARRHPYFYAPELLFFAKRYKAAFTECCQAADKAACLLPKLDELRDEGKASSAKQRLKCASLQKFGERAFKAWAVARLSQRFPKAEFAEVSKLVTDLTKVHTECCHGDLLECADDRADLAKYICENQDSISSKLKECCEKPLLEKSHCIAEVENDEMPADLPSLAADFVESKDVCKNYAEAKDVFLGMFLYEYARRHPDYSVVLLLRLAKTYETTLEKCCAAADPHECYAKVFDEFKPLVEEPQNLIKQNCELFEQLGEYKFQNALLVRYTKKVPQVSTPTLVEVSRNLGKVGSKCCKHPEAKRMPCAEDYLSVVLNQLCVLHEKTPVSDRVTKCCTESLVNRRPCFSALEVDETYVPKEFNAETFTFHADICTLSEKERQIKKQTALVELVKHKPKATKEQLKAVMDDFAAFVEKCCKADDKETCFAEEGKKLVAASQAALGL
The assay can be described thus: HSA tryptophan fluorescence quenching. It counts as binding. Conditions: for Kd: read-out: Binding constant Kbin (converted).
From the text: as §1, §2, §3, §4, §5, §6, §7

In another assay the test system is P. aeruginosa. The assay can be described thus: In vitro antibacterial assay (zone of inhibition, MIC). The format is cell-based, Pseudomonas aeruginosa. Conditions: for zone of inhibition at 50 µg/mL / zone of inhibition at 100 µg/mL: Pseudomonas aeruginosa. As to the method: (§8) The free ligands and their cyclometallated ruthenium(II) carbonyl complexes were screened for their in vitro antimicrobial activity against certain pathogenic bacterial and fungal species at three different concentrations using disc diffusion method.
(§9) Antimicrobial activities of [RuHClCO(PPh3)3], ligands H2L^1–4 and new organometallic Ru(II) complexes (1–4) were evaluated by agar well diffusion method[76] as reported, by taking Staphylococcus aureus, Streptococcus pneumonie, Pseudomonas aeruginosa, Salmonella paratyphi and fungus such as Candida albicans, Trichophyton rubrum, Aspergillus niger, Aspergillus fumigatus and Candida tropicalis. The above said all test organisms were obtained from the MTCC, Chandigarh, India and Microbiological laboratory, Coimbatore, Tamil Nadu, India. The antimicrobial activity of the test compounds was checked with various concentrations (25 μg ml^−1, 50 μg ml^−1 and 100 μg ml^−1) against all the test pathogens. Gentamicin and ketoconazole were used as positive controls to study the antibacterial and antifungal activities respectively. Each experiment was performed in triplicate and the results are represented as average zone of inhibition and minimum inhibitory concentration of all the test pathogens.

A further assay has as its system S. paratyphi. The assay is described as above. The format is cell-based, Salmonella paratyphi. The conditions noted are these: for zone of inhibition at 50 µg/mL / zone of inhibition at 100 µg/mL: Salmonella enterica.
From the text: The free ligands and their cyclometallated ruthenium(II) carbonyl complexes were screened for their in vitro antimicrobial activity against certain pathogenic bacterial and fungal species at three different concentrations using disc diffusion method. […] Tested complexes had better antimicrobial activity than the ligands against all pathogens. This may be explained by Tweedy's chelation theory.[61] Coordination of ligands reduce the polarity of the metal ion essentially by partial sharing of its positive charge with the donor groups within the chelate ring system formed during the coordination and leading to the increase in lipophilic nature of the central metal atom, which favours the effective permeation through the lipid layer of microorganism.[61,62] […] When tested against T. rubrum, the activity of the complexes in the order of 3 > 2 > 1 > 4. In antibacterial studies, the complex 3 was effective against S. aureus followed by complex 2, 1 and 4 and in the case of S. pneumonie the activity of the complexes follows the order of 3 > 1 > 4 > 2. […] When tested against S. paratyphi complex 1 stood out as good followed by the complexes 4, 3 and 2 respectively.
as §9

For the next assay, the system named is Aspergillus fumigatus. The assay can be described thus: In vitro antifungal assay (zone of inhibition, MIC). The format is cell-based. As to the method: as §8, §9
Another assay deals with Aspergillus niger. The description is as above. The format is cell-based. As to the method: as §8, §9
A further assay deals with Candida tropicalis. Described as above. It counts as cell-based. As to the method:
as §8, §9

The next assay concerns Trichophyton rubrum. The assay is described as above. The format is cell-based. As to the method:
as §8, §9

For a further assay, the system named is C. albicans. The description is as above. It counts as cell-based, Candida albicans. The conditions noted are these: for zone of inhibition at 50 µg/mL / zone of inhibition at 100 µg/mL: Candida albicans. As to the method: as §8, §9

T1 sequence (P02769 25-607): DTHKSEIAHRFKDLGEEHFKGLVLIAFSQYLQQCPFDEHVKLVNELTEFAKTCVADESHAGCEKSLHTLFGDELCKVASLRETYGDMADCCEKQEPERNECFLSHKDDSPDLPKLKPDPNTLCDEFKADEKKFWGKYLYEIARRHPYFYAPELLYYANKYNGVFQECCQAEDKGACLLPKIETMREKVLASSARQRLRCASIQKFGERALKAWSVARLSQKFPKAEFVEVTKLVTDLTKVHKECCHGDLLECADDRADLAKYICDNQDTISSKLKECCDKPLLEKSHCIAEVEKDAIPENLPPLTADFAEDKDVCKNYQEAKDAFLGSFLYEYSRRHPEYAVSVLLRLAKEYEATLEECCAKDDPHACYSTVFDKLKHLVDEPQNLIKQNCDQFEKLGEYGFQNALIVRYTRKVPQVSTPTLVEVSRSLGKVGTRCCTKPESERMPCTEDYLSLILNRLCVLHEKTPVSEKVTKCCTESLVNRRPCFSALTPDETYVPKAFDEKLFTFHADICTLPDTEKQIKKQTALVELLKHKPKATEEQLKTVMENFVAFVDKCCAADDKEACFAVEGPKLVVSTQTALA

On to `COc1ccc2cc(/C(C)=N\NC(=S)Nc3ccccc3)c(=O)oc2c1` [H2L^4, ((1E)-1-(1-(7-methoxy-2-oxo-2H-chromen-3-yl)ethylidene) 4(N)-phenylthiosemicarbazone)], for which the Kd was 900 µM at BSA and 858 µM at HSA (HSA, Scatchard equation). In addition, the zone of inhibition at 50 µg/mL worked out at 12.1 ± 0.32 mm with P. aeruginosa; 12.2 ± 0.51 mm in the assay with S. paratyphi (50 µg/ml); 11.3 ± 0.33 mm in the assay with Aspergillus fumigatus; 12.5 ± 0.83 mm with Aspergillus niger; 12.2 ± 0.23 mm in the assay with Candida tropicalis; 12.4 ± 0.32 mm in the assay on Trichophyton rubrum. In addition, in the assay on C. albicans, the zone of inhibition at 50 µg/mL is 12.3 ± 0.21 mm. The zone of inhibition at 100 µg/mL is 17.5 ± 0.65 mm in the assay with P. aeruginosa; 16.4 ± 0.51 mm in the assay with S. paratyphi (100 µg/ml); 18.22 ± 0.14 mm with Aspergillus fumigatus; 17.3 ± 0.21 mm in the assay with Aspergillus niger; 19.2 ± 0.32 mm with Candida tropicalis; 16.4 ± 0.66 mm in the assay with Trichophyton rubrum. The zone of inhibition at 100 µg/mL in the assay on C. albicans turned out to be 17.19 ± 0.15 mm.
With `COc1ccc2cc(C(C)=NNC(N)=S)c(=O)oc2c1` [H2L^1, ((1E)-1-(1-(7-methoxy-2-oxo-2H-chromen-3-yl)ethylidene)thiosemicarbazone)], the Kd is 507 µM on BSA and 477 µM at HSA (HSA, Scatchard equation). Moreover, the zone of inhibition at 50 µg/mL came out at 13.2 ± 0.41 mm with P. aeruginosa; 13.2 ± 0.77 mm in the assay on S. paratyphi (50 µg/ml); 11.2 ± 0.73 mm with Aspergillus fumigatus; 13.1 ± 0.33 mm with Aspergillus niger; 11.93 ± 0.01 mm with Candida tropicalis; 13.2 ± 0.16 mm with Trichophyton rubrum. In the assay with C. albicans, this compound came in with a zone of inhibition at 50 µg/mL of 11.2 ± 0.14 mm. The zone of inhibition at 100 µg/mL with P. aeruginosa was 18.1 ± 0.24 mm; in the assay with S. paratyphi (100 µg/ml), 16.5 ± 0.46 mm; in the assay on Aspergillus fumigatus it was 17.4 ± 0.22 mm; in the assay on Aspergillus niger, 17.41 ± 0.14 mm; in the assay with Candida tropicalis, 17.4 ± 0.51 mm; in the assay with Trichophyton rubrum, 17.3 ± 0.51 mm. In the assay on C. albicans, the zone of inhibition at 100 µg/mL came to 17 ± 0.91 mm.
`COc1ccc2[c]3c(c(=O)oc2c1)C(C)=[N+]1N=C(Nc2ccccc2)[S][Ru-4]31([C]#[O+])([P+](c1ccccc1)(c1ccccc1)c1ccccc1)[P+](c1ccccc1)(c1ccccc1)c1ccccc1` [Complex 4, [Ru(7MAC-ptsc)(CO)(PPh3)2]]: the Quenching constant kq on BSA (BSA) is 1.454 ± 0.030 × 10^12 M^−1 s^−1; on HSA (HSA), 0.675 ± 0.008 × 10^12 M^−1 s^−1. For the same compound, the figures for the “Stern–Volmer KSV” value at BSA (BSA) and at HSA (HSA) were 1.454 ± 0.030 × 10^4 M^−1 and 0.675 ± 0.008 × 10^4 M^−1, respectively. For the same compound, the “number of binding sites n” value at BSA (BSA) turned out to be 1.0486 ± 0.019; at HSA (HSA), 0.9118 ± 0.025. The “Binding constant Kbin” value was 2.178 ± 0.019 × 10^4 M^−1 at BSA (BSA, Scatchard equation) and 0.297 ± 0.024 × 10^4 M^−1 at HSA (HSA, Scatchard equation). For the same compound, the “quenching of BSA fluorescence intensity at 346 nm” value on BSA (compounds 10–100 μM, BSA 10 μM) is on record as 58.68%. In addition, the “decrease of HSA fluorescence intensity” value at HSA (compounds 10–100 μM, HSA 10 μM) was 39.80%. Further, the “Minimum inhibitory concentration (MIC); head: IC50 VALUES” in the assay on P. aeruginosa (P. aeruginosa) was 15.66 ± 0.16 µM; in the assay with Aspergillus fumigatus, 14.45 ± 0.13 µM; with Aspergillus niger, 14.80 ± 0.25 µM; in the assay with Candida tropicalis, 13.54 ± 0.21 µM; in the assay with Trichophyton rubrum, 15.52 ± 0.27 µM; in the assay with C. albicans (C. albicans), 14.65 ± 0.13 µM. For the same compound, the Zone of inhibition is 12.33±0.53 mm in the assay on P. aeruginosa (P. aeruginosa, 50 µg/ml); 16.85±0.62 mm in the assay with P. aeruginosa (P. aeruginosa, 100 µg/ml); 12.31±0.38 mm in the assay with S. paratyphi (50 µg/ml); 17.55±0.54 mm in the assay on S. paratyphi (100 µg/ml); 12.36±0.52 mm with Aspergillus fumigatus (50 µg/ml); 18.15±0.45 mm with Aspergillus fumigatus (100 µg/ml). Also, the Zone of inhibition with Aspergillus niger (50 µg/ml) is 11.55±0.26 mm; with Aspergillus niger (100 µg/ml), 17.66±0.13 mm; in the assay with Candida tropicalis (50 µg/ml), 12.43±0.12 mm; in the assay with Candida tropicalis (100 µg/ml) it was 17.13±0.57 mm; in the assay with Trichophyton rubrum (50 µg/ml), 12.41±0.56 mm; in the assay on Trichophyton rubrum (100 µg/ml), 18.42±0.18 mm. The Zone of inhibition with C. albicans (C. albicans, 50 µg/ml) is 12.49±0.14 mm; in the assay on C. albicans (C. albicans, 100 µg/ml), 17.19±0.66 mm.
Consider `CNC(=S)NN=C(C)c1cc2ccc(OC)cc2oc1=O` [H2L^2, ((1E)-1-(1-(7-methoxy-2-oxo-2H-chromen-3-yl)ethylidene) 4(N)-methylthiosemicarbazone)], for which the Kd was 333 µM at BSA and 392 µM at HSA (HSA, Scatchard equation). The zone of inhibition at 50 µg/mL in the assay on P. aeruginosa stood at 12.6 ± 0.37 mm; in the assay on S. paratyphi (50 µg/ml), 13.43 ± 0.12 mm; with Aspergillus fumigatus, 11.8 ± 0.41 mm; in the assay on Aspergillus niger it was 12.4 ± 0.33 mm; in the assay with Candida tropicalis, 11.5 ± 0.75 mm; with Trichophyton rubrum, 11.3 ± 0.17 mm. Besides, in the assay on C. albicans, the zone of inhibition at 50 µg/mL is 13.38 ± 0.12 mm. The zone of inhibition at 100 µg/mL in the assay on P. aeruginosa was found to be 17.7 ± 0.45 mm; with S. paratyphi (100 µg/ml) it was 16.2 ± 0.57 mm; in the assay with Aspergillus fumigatus, 18.3 ± 0.22 mm; in the assay with Aspergillus niger, 16.6 ± 0.21 mm; in the assay with Candida tropicalis, 17.1 ± 0.46 mm; in the assay with Trichophyton rubrum, 17.4 ± 0.51 mm. The same compound displayed a zone of inhibition at 100 µg/mL in the assay with C. albicans of 18.17 ± 0.15 mm.
